Earlier results on one molecule are cited in paper PMC10539439 (Pharmacological Reports, 2023).

SMILES strings stand for the structures.

For data set [1] the following is noted: 5 mg/kg b.w., i.p.; cited from earlier work.
The conditions of data set [2]: 5 mg/kg b.w., i.p.; cited from earlier work. The source holds these as a separate data set.

`N=C(N)N/N=C/c1c(Cl)cccc1Cl` [Guanabenz]: the “Amount of calories consumed” value in data set [1] is “↓ [17]”. Further, in data set [2], the Plasma cholesterol level entry is “↑ [17]”, the Plasma glucose level entry was “↓ [17]” and the Plasma triglyceride level result is “↓ [17]”.
